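Results reflect a 48-hour exposure of cells in 96-well plates to compound at five concentrations. GI50 = concentration required for 50% inhibition of growth. Definition used: TGI = concentration required for complete inhibition of growth.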
Key:
Test in all cases: inhibition of tumour cell growth, NCI panel, 48 h
IGROV1 ovarian = test system: IGROV1 ovarian
UACC-257 melanoma = test system: UACC-257 melanoma
HT29 colon = test system: HT29 colon
CAKI-1 renal = test system: CAKI-1 renal
SK-MEL-28 melanoma = test system: SK-MEL-28 melanoma
OVCAR-3 ovarian = test system: OVCAR-3 ovarian
HL-60(TB) leukemia = test system: HL-60(TB) leukemia
RXF 393 renal = test system: RXF 393 renal

Row | SMILES | GI50 (IGROV1 ovarian) [µM] | TGI (IGROV1 ovarian) [µM] | GI50 (UACC-257 melanoma) [µM] | TGI (UACC-257 melanoma) [µM] | GI50 (HT29 colon) [µM] | TGI (HT29 colon) [µM] | GI50 (CAKI-1 renal) [µM] | TGI (CAKI-1 renal) [µM] | GI50 (SK-MEL-28 melanoma) [µM] | TGI (SK-MEL-28 melanoma) [µM] | GI50 (OVCAR-3 ovarian) [µM] | TGI (OVCAR-3 ovarian) [µM] | GI50 (HL-60(TB) leukemia) [µM] | TGI (HL-60(TB) leukemia) [µM] | TGI (RXF 393 renal) [µM] | GI50 (RXF 393 renal) [µM]
1 | Cc1c(C(N)=O)sc2nc(C)n(/N=c3\scc(-c4ccccc4)n3Cc3ccccc3)c(=O)c12 | 1.43 | 6.31 | 3.56 | 24.3 | 3.04 | > 100 | 3.35 | > 100 | 3.56 | > 100 | 2.28 | 8.58 | 6.68 | > 100 | – | –
2 | CSc1nc(SC)c2c(C)cn(COCCOC(=O)c3ccccc3)c2n1 | – | > 100 | – | – | – | > 100 | – | > 100 | – | > 100 | – | > 100 | – | > 100 | > 100 | –
3 | CC1=C(C(=O)Nc2ccc(Cl)c(Cl)c2)C(c2cccc(Cl)c2)NC(=S)N1 (stereo unspecified) | 8.83 | 35 | – | – | 16.1 | > 50 | 14.2 | > 50 | 15.6 | > 50 | 10.5 | 37.5 | 16.5 | 45.5 | 23.6 | 9.63
4 | Cn1c(I)c(C#C[Si](C)(C)C)c(=O)[nH]c1=O | 1.9 | 3.63 | 0.236 | 3.85 | 2.41 | 5.64 | 2.76 | 9.58 | 1.66 | 3.12 | 1.9 | 3.39 | 1.9 | 4.42 | 1.74 | 0.639
5 | COc1ccc(-c2c(-c3ccc(C#N)c(F)c3)nc(N3CCC(N)CC3)n(C)c2=O)cc1F | 16.3 | 41.8 | 13.6 | 29.2 | 10.4 | 30.2 | 13.8 | 30.6 | 15.3 | 29.8 | 21.7 | 77.4 | 10.8 | 29.1 | 23.6 | 7.41
6 | O=C1Cc2cc(CCN3CCNCC3)c(Cl)cc2N1 | – | – | 6.52 | > 100 | > 100 | > 100 | 6.11 | > 100 | 37 | > 100 | 14.1 | > 100 | 43 | > 100 | > 100 | 6.89
7 | CCc1c(C)c2cc(-n3c(-c4ccc(OC)cc4)csc3=N)c(O)c(C)c2oc1=O | 1.08 | 5.25 | 3.15 | 14.2 | 1.74 | 6.12 | – | – | 1.55 | 4.42 | 1.19 | 3.08 | – | – | 6.7 | 1.74
8 | COc1ccc(/C=C/c2ccnc3ccccc23)cc1OC | – | 28.9 | – | 37.6 | – | 27.4 | – | 29.3 | – | 31.7 | – | 26.6 | – | 25.5 | 27.2 | –
9 | C(=N\Nc1ccc2ccccc2n1)/c1ccccn1 | 0.388 | 8.66 | – | – | 0.536 | > 40.6 | 0.257 | 0.763 | 1.96 | > 100 | 0.351 | – | 0.279 | 2.3 | > 52 | 0.443
10 | COc1ccc2c(c1)/C(=N/OC(C)=O)c1c-2c(OC)nc2ccccc12 | – | – | > 100 | > 100 | > 100 | > 100 | > 100 | > 100 | > 100 | > 100 | > 100 | > 100 | > 100 | > 100 | > 100 | 77.7
11 | Fc1ccc(Nc2nc(Nc3ccc(-c4nc5ccccc5[nH]4)cc3)c3cn[nH]c3n2)cc1 | 1.75 | 3.84 | 2 | 4.37 | 1.93 | 4 | 1.97 | 5.41 | 1.88 | 3.78 | 1.94 | 4.42 | 2.96 | 6.92 | 3.4 | 1.67
12 | NS(=O)(=O)c1ccc(N=Nc2c[nH]c(=O)c(O)c2)cc1 | – | > 100 | – | > 100 | – | > 100 | – | > 100 | – | > 100 | – | 82.6 | – | > 100 | > 100 | –
13 | Cc1ccc(-c2nc3sc(C)cn3c2/C=C2\C(=O)Nc3ccc(Cl)cc32)cc1 | 12.6 | 27.6 | 16.6 | 44.9 | 20.3 | 41.4 | 17 | 38.2 | 18 | 34.5 | 24.6 | 62.8 | 32.3 | > 100 | – | –
14 | CSc1ccc(C(=O)/C=C/c2ccc(Cl)cc2Cl)cc1 | 15.6 | 31.9 | 24 | 91.4 | – | – | 33.4 | 92 | – | – | 21.9 | 49.2 | 18.4 | 38.2 | 36.2 | 16.4
15 | N#Cc1c(N)nc(N2CCOCC2)c(C#N)c1-c1c(Cl)cccc1Cl | 1.98 | 5.08 | 5.16 | 30.4 | 3.33 | 17.4 | 2.24 | 12.2 | 7.38 | 56 | 2.4 | 6.37 | 4.75 | 20.9 | 28.3 | 4.58
16 | Oc1[nH]c2ccccc2c1C=Nc1ccc(-n2cncn2)cc1 | > 25 | > 25 | > 25 | > 25 | > 23.1 | > 25 | > 22.7 | > 25 | > 25 | > 25 | > 20.9 | > 25 | 12.9 | > 25 | > 25 | > 14.5
17 | COc1ccc2nc3ccccc3c(NCCCCN(CCCl)CCCl)c2c1 | – | 17.7 | – | 3.34 | – | > 100 | – | – | – | 8.02 | – | – | – | – | 0.289 | –
18 | COc1cc(C(=O)n2nc(N)c3c(C)cc(C)nc32)cc(OC)c1OC | > 100 | > 100 | > 100 | > 100 | 3.46 | > 100 | > 100 | > 100 | > 100 | > 100 | > 88.9 | > 100 | 4.49 | > 100 | > 100 | 25.3

Source: PubChem BioAssay (NCI)
